According to a compilation of properties of binary mixtures (doi:10.1021/acs.jpcc.8b05193):

Assay: xn = mol fraction of the nth substance listed
Conditions: 100 kPa

O=S(=O)([N-]S(=O)(=O)C(F)(F)F)C(F)(F)F.[Li+] + O
Conditions	electrical conductivity [S/m]
260.73 K, x2 = 0.7857	0.407
261.98 K, x2 = 0.8065	0.617
262.18 K, x2 = 0.8855	1.33
262.4 K, x2 = 0.9148	1.46
262.6 K, x2 = 0.8271	0.808
262.82 K, x2 = 0.8495	1.04
265.92 K, x2 = 0.7857	0.55
266.56 K, x2 = 0.8065	0.767
266.96 K, x2 = 0.8495	1.25
266.96 K, x2 = 0.9761	1.36
267.38 K, x2 = 0.8855	1.66
267.6 K, x2 = 0.9148	1.86
270.7 K, x2 = 0.7857	0.684
271.54 K, x2 = 0.8065	0.966
271.96 K, x2 = 0.9761	1.73
272.15 K, x2 = 0.8271	1.21
272.6 K, x2 = 0.9148	2.27
273.4 K, x2 = 0.7538	0.461
273.4 K, x2 = 0.8495	1.62
275.7 K, x2 = 0.7857	0.843
277.15 K, x1 = 0.0039	0.623
277.35 K, x2 = 0.8065	1.16
277.35 K, x2 = 0.8855	2.54
277.35 K, x2 = 0.9761	2.06
277.55 K, x2 = 0.8271	1.51
277.97 K, x2 = 0.7538	0.579
277.97 K, x2 = 0.9148	2.88
278.19 K, x2 = 0.8495	1.94
280.67 K, x2 = 0.7857	1.06
281.51 K, x2 = 0.8271	1.8
281.93 K, x2 = 0.8855	2.94
282.13 K, x2 = 0.9761	2.49
282.32 K, x1 = 0.0039	0.736
282.32 K, x2 = 0.8065	1.43
282.55 K, x2 = 0.9148	3.3
282.74 K, x2 = 0.8495	2.22
285.45 K, x2 = 0.7857	1.23
286.71 K, x2 = 0.9148	3.94
286.9 K, x2 = 0.8271	2.11
287.1 K, x2 = 0.8065	1.66
287.32 K, x2 = 0.8855	3.47
287.52 K, x2 = 0.9761	2.94
287.94 K, x2 = 0.8495	2.65
291.06 K, x2 = 0.7857	1.46
291.46 K, x2 = 0.8271	2.41
291.88 K, x2 = 0.8855	3.98
292.1 K, x2 = 0.9761	3.33
292.52 K, x2 = 0.7538	1.02
292.71 K, x2 = 0.9148	4.51
293.13 K, x2 = 0.8495	3.17
295.84 K, x2 = 0.7857	1.71
296.88 K, x2 = 0.6988	0.538
296.88 K, x2 = 0.9761	3.81
297.29 K, x2 = 0.8065	2.22
297.29 K, x2 = 0.8855	4.65
297.49 K, x2 = 0.7538	1.19
297.49 K, x2 = 0.8495	3.51
297.49 K, x2 = 0.9148	5.33
298.11 K, x1 = 0.0039	1.07
300.4 K, x2 = 0.7857	1.96
302.47 K, x1 = 0.0039	1.21
302.47 K, x2 = 0.6988	0.636
302.47 K, x2 = 0.8855	5.16
302.69 K, x2 = 0.9761	4.37
303.11 K, x2 = 0.8065	2.62
305.59 K, x2 = 0.7857	2.24
307.05 K, x2 = 0.8855	5.67
307.05 K, x2 = 0.9148	6.42
307.24 K, x2 = 0.6988	0.767
307.46 K, x1 = 0.0039	1.35
307.46 K, x2 = 0.8271	3.62
307.46 K, x2 = 0.8495	4.46
310.79 K, x2 = 0.7857	2.57
312.02 K, x2 = 0.9761	5.38
312.24 K, x2 = 0.7538	1.8
312.24 K, x2 = 0.8271	4.02
312.24 K, x2 = 0.8495	4.95
312.66 K, x1 = 0.0039	1.51
312.66 K, x2 = 0.8855	6.42
312.66 K, x2 = 0.9148	7.28
313.05 K, x2 = 0.6601	0.528
316.6 K, x1 = 0.0039	1.62
316.8 K, x2 = 0.8855	7.06
317.02 K, x2 = 0.8065	3.59
317.21 K, x2 = 0.9761	5.97
317.41 K, x2 = 0.9148	8.07
317.63 K, x2 = 0.6601	0.604
317.83 K, x2 = 0.7538	2.06
321.79 K, x2 = 0.8065	3.94
321.79 K, x2 = 0.8855	7.59
321.99 K, x1 = 0.0039	1.78
322.19 K, x2 = 0.8271	4.85
322.41 K, x2 = 0.9148	8.69
322.61 K, x2 = 0.8495	6.03
322.83 K, x2 = 0.6601	0.692
323.03 K, x2 = 0.6988	1.18
326.35 K, x2 = 0.7857	3.51
326.77 K, x1 = 0.0039	1.92
326.97 K, x2 = 0.8855	8.33
327.19 K, x2 = 0.7538	2.52
327.19 K, x2 = 0.9148	9.45
327.38 K, x2 = 0.9761	7.13
327.8 K, x2 = 0.8495	6.49
328.02 K, x2 = 0.8065	4.56
328.64 K, x2 = 0.6601	0.833
332.16 K, x1 = 0.0039	2.08
332.58 K, x2 = 0.6988	1.52
332.58 K, x2 = 0.9148	10
332.78 K, x2 = 0.9761	7.67
333.42 K, x2 = 0.6601	0.945
336.94 K, x2 = 0.8271	6.35
337.16 K, x1 = 0.0039	2.2
337.36 K, x2 = 0.8065	5.27
337.55 K, x2 = 0.8495	7.59
337.55 K, x2 = 0.9148	10.7
337.78 K, x2 = 0.9761	8.25
337.97 K, x2 = 0.7538	3.13
338.19 K, x2 = 0.6601	1.05
338.19 K, x2 = 0.6988	1.73
342.33 K, x2 = 0.8495	8.16
342.33 K, x2 = 0.9148	11.6
342.55 K, x2 = 0.6988	1.88
342.55 K, x2 = 0.8855	10.4
342.75 K, x2 = 0.9761	8.87
345.65 K, x2 = 0.7857	4.95
347.11 K, x2 = 0.8855	11
347.33 K, x2 = 0.6601	1.35
347.33 K, x2 = 0.8065	6.03
347.33 K, x2 = 0.8271	7.51
347.75 K, x2 = 0.9148	12.5
347.94 K, x2 = 0.7538	3.73
350.43 K, x2 = 0.7857	5.27
352.11 K, x2 = 0.8495	9.06
352.3 K, x1 = 0.0039	2.65
352.52 K, x2 = 0.9148	13
352.72 K, x2 = 0.8271	7.91
352.72 K, x2 = 0.9761	9.74
352.92 K, x2 = 0.6601	1.48
353.14 K, x2 = 0.6988	2.34
353.34 K, x2 = 0.7538	4.02
356.66 K, x2 = 0.8065	6.91
356.88 K, x2 = 0.6988	2.49
357.08 K, x2 = 0.9761	10.3
357.3 K, x2 = 0.8271	8.33
357.3 K, x2 = 0.8495	9.74
357.5 K, x1 = 0.0039	2.85
357.7 K, x2 = 0.6601	1.64
357.92 K, x2 = 0.7538	4.32
359.79 K, x2 = 0.7857	6.03
360.82 K, x2 = 0.8065	7.28
360.82 K, x2 = 0.9761	10.7
361.66 K, x2 = 0.8495	10.3
361.66 K, x2 = 0.8855	13.2
361.86 K, x1 = 0.0039	3.04
362.05 K, x2 = 0.6601	1.82
362.05 K, x2 = 0.8271	8.96
362.47 K, x2 = 0.6988	2.76
363.11 K, x2 = 0.9148	14.5
363.31 K, x2 = 0.7538	4.7
